Experimental data as given in ChEMBL document CHEMBL4004883, “Biologically active perspective synthesis of heteroannulated 8-nitroquinolines with green chemistry approach” (Bioorg Med Chem Lett, 2017).
In brackets after ≈: the same amount, converted by molar mass. Activity calls are given as the source filed them. No cut-off for these calls is given here.

Legend:
[1] = test system: A549; test: Induction of apoptosis in human A549 cells assessed as cell shrinkage at IC50 after 48 hrs by acridine orange/ ethidium bromide staining-based fluorescence microscopic method; assay type: functional
[2] = test system: A549; test: Induction of apoptosis in human A549 cells assessed as nuclear fragmentation at IC50 by DAPI staining-based fluorescence microscopic method; assay type: functional, cell-based
[3] = Antioxidant activity assessed as assessed as ferric ion reducing activity by measuring absorbance at 700 nm at 60 ug/ml after 20 mins by spectrophotometric method; assay type: functional
[4] = test system: MCF7; test: Induction of apoptosis in human MCF7 cells assessed as cell blebbing at IC50 after 48 hrs by acridine orange/ ethidium bromide staining-based fluorescence microscopic method; assay type: functional
[5] = test system: MCF7; test: Cytotoxicity against human MCF7 cells assessed as decrease in cell viability after 48 hrs by MTT assay; assay type: functional, cell-based; conditions: MCF7, 48 h
[6] = test system: Bacillus subtilis; test: Antibacterial activity against Bacillus subtilis MTCC 121 at 100 ug incubated for 24 hrs under dark condition by agar well diffusion method; assay type: functional; conditions: MTCC 121, 24 h, read-out: IZ
[7] = test system: Staphylococcus aureus; test: Antibacterial activity against Staphylococcus aureus MTCC 96 at 100 ug incubated for 24 hrs under dark condition by agar well diffusion method; assay type: functional; conditions: MTCC 96, 24 h, read-out: IZ
[8] = test system: Escherichia coli; test: Antibacterial activity against Escherichia coli MTCC 1652 incubated for 24 hrs under dark condition by microwell dilution method; assay type: functional; conditions: MTCC 1652, 24 h
[9] = test system: MCF7; test: Induction of apoptosis in human MCF7 cells assessed as cell shrinkage at IC50 after 48 hrs by acridine orange/ ethidium bromide staining-based fluorescence microscopic method; assay type: functional
[10] = Antioxidant activity assessed as total antioxidant capacity measured as ascorbic acid equivalents at 60 ug/ml after 90 mins by phosphomolybdenum method; assay type: functional
[11] = test system: Pseudomonas aeruginosa; test: Antibacterial activity against Pseudomonas aeruginosa MTCC 102 incubated for 24 hrs under dark condition by microwell dilution method; assay type: functional; conditions: MTCC 102, 24 h
[12] = test system: Bacillus subtilis; test: Antibacterial activity against Bacillus subtilis MTCC 121 incubated for 24 hrs under dark condition by microwell dilution method; assay type: functional; conditions: MTCC 121, 24 h
[13] = Antioxidant activity assessed as DPPH radical scavenging activity after 20 mins by UV/VIS Spectrophotometric method; assay type: functional
[14] = Antioxidant activity assessed as total antioxidant capacity measured as ascorbic acid equivalents at 100 ug/ml after 90 mins by phosphomolybdenum method; assay type: functional
[15] = test system: Pseudomonas aeruginosa; test: Antibacterial activity against Pseudomonas aeruginosa MTCC 102 at 100 ug incubated for 24 hrs under dark condition by agar well diffusion method; assay type: functional; conditions: MTCC 102, 24 h, read-out: IZ
[16] = test system: A549; test: Induction of apoptosis in human A549 cells assessed as chromatin condensation at IC50 by DAPI staining-based fluorescence microscopic method; assay type: functional, cell-based
[17] = Antioxidant activity assessed as assessed as ferric ion reducing activity by measuring absorbance at 700 nm at 20 ug/ml after 20 mins by spectrophotometric method; assay type: functional
[18] = test system: MCF7; test: Induction of apoptosis in human MCF7 cells assessed as chromatin condensation at IC50 by DAPI staining-based fluorescence microscopic method; assay type: functional, cell-based
[19] = test system: MCF7; test: Induction of apoptosis in human MCF7 cells assessed as nuclear fragmentation at IC50 by DAPI staining-based fluorescence microscopic method; assay type: functional, cell-based
[20] = Antioxidant activity assessed as assessed as ferric ion reducing activity by measuring absorbance at 700 nm at 100 ug/ml after 20 mins by spectrophotometric method; assay type: functional
[21] = test system: Staphylococcus aureus; test: Antibacterial activity against Staphylococcus aureus MTCC 96 incubated for 24 hrs under dark condition by microwell dilution method; assay type: functional; conditions: MTCC 96, 24 h
[22] = test system: A549; test: Cytotoxicity against human A549 cells assessed as decrease in cell viability after 48 hrs by MTT assay; assay type: functional, cell-based; conditions: A549, 48 h
[23] = test system: Escherichia coli; test: Antibacterial activity against Escherichia coli MTCC 1652 at 100 ug incubated for 24 hrs under dark condition by agar well diffusion method; assay type: functional; conditions: MTCC 1652, 24 h, read-out: IZ
[24] = Antioxidant activity assessed as total antioxidant capacity measured as ascorbic acid equivalents at 20 ug/ml after 90 mins by phosphomolybdenum method; assay type: functional
[25] = test system: A549; test: Induction of apoptosis in human A549 cells assessed as cell blebbing at IC50 after 48 hrs by acridine orange/ ethidium bromide staining-based fluorescence microscopic method; assay type: functional

| MIC [8] | MIC [11] | MIC [12] | IC50 [13] | MIC [21] | Structure (SMILES) | OD [3] | IC50 [5] | zone of inhibition at 100 µg/disc [6] | zone of inhibition at 100 µg/disc [7] | Activity [10] | Activity [14] | zone of inhibition at 100 µg/disc [15] | OD [17] | OD [20] | IC50 [22] | zone of inhibition at 100 µg/disc [23] | Activity [24] | also measured |
| --- | --- | --- | --- | --- | --- | --- | --- | --- | --- | --- | --- | --- | --- | --- | --- | --- | --- | --- |
| 60 µg/mL (≈ 162 µM) | 150 µg/mL (≈ 405 µM) | 60 µg/mL (≈ 162 µM) | 146.85 µg/mL (≈ 396 µM) | 60 µg/mL (≈ 162 µM) | O=[N+]([O-])c1cccc2c1NCC1C2=NN(c2ccccc2)C1c1ccccc1 (stereo not given) | 0.08 | 53.4 µM | 8 mm | 8 mm | 10.8 µgequiv/ml | 14.9 µgequiv/ml | 14 mm | 0.075 | 0.096 | 59.8 µM | 12 mm | 5.18 µgequiv/ml | – |
| 80.5 µg/mL (≈ 172 µM) | 100 µg/mL (≈ 213 µM) | 50 µg/mL (≈ 107 µM) | 151.83 µg/mL (≈ 324 µM) | 50 µg/mL (≈ 107 µM) | COc1ccc(N2N=C3c4cc(Cl)cc([N+](=O)[O-])c4NCC3C2c2ccc(Cl)cc2)cc1 (stereo not given) | 0.171 | 25.8 µM | 14 mm | 13 mm | 4.43 µgequiv/ml | 8.36 µgequiv/ml | 13 mm | 0.1 | 0.253 | 32 µM | 12 mm | 1.86 µgequiv/ml | – |
| 25.5 µg/mL (≈ 56.8 µM) | 55.5 µg/mL (≈ 124 µM) | 12.5 µg/mL (≈ 27.8 µM) | 226.97 µg/mL (≈ 505 µM) | 15 µg/mL (≈ 33.4 µM) | O=[N+]([O-])c1cccc2c1NCC1C2=NN(c2ccccc2)C1c1ccc(Br)cc1 (stereo not given) | 0.096 | 34.7 µM | 19 mm | 16 mm | 13.7 µgequiv/ml | 18.2 µgequiv/ml | 16 mm | 0.09 | 0.107 | 29.6 µM | 18 mm | 6.12 µgequiv/ml | – |

Continued, compound first:

| Structure (SMILES) | MIC [8] | MIC [11] | MIC [12] | IC50 [13] | MIC [21] | OD [3] | IC50 [5] | zone of inhibition at 100 µg/disc [6] | zone of inhibition at 100 µg/disc [7] | Activity [10] | Activity [14] | zone of inhibition at 100 µg/disc [15] | OD [17] | OD [20] | IC50 [22] | zone of inhibition at 100 µg/disc [23] | Activity [24] | also measured |
| --- | --- | --- | --- | --- | --- | --- | --- | --- | --- | --- | --- | --- | --- | --- | --- | --- | --- | --- |
| N#CC1=C(N)OC2=C(CNc3c2cccc3[N+](=O)[O-])C1c1cccs1 (stereo not given) | 17 µg/mL (≈ 48.2 µM) | 37 µg/mL (≈ 105 µM) | 5 µg/mL (≈ 14.2 µM) | 194.81 µg/mL (≈ 553 µM) | 5 µg/mL (≈ 14.2 µM) | 0.118 | 14.3 µM | 29 mm | 23 mm | 5.72 µgequiv/ml | 11.8 µgequiv/ml | 20 mm | 0.098 | 0.134 | 15.4 µM | 22 mm | 2.19 µgequiv/ml | Activity [1]: Active; Activity [2]: Active; Activity [4]: Active; Activity [9]: Active; Activity [16]: Active; Activity [18]: Active; Activity [19]: Active; Activity [25]: Active |
| COc1ccc(C2C(C#N)=C(N)OC3=C2CNc2c3cccc2[N+](=O)[O-])cc1 (stereo not given) | 17 µg/mL (≈ 45.2 µM) | 37 µg/mL (≈ 98.3 µM) | 12.5 µg/mL (≈ 33.2 µM) | 65.42 µg/mL (≈ 174 µM) | 10 µg/mL (≈ 26.6 µM) | 0.211 | 16.8 µM | 20 mm | 21 mm | 15.1 µgequiv/ml | 23.2 µgequiv/ml | 21 mm | 0.109 | 0.368 | 35.6 µM | 20 mm | 7.55 µgequiv/ml | – |
| Cc1ccc(C2C(C#N)=C(N)OC3=C2CNc2c3cccc2[N+](=O)[O-])cc1 (stereo not given) | 25.5 µg/mL (≈ 70.8 µM) | 55.5 µg/mL (≈ 154 µM) | 50 µg/mL (≈ 139 µM) | 183.1 µg/mL (≈ 508 µM) | 55 µg/mL (≈ 153 µM) | 0.111 | 34.1 µM | 12 mm | 13 mm | 4.43 µgequiv/ml | 8.15 µgequiv/ml | 15 mm | 0.09 | 0.163 | 56.3 µM | 18 mm | 1.82 µgequiv/ml | – |
